{"source": "patent US20260262641A1", "about": "(priority 2023, published 2026)", "key": {"[1]": {"tested_on": "insecticide-susceptible population of redlegged earth mite (H. destructor; RLEM)", "experiment": "whole plant or invertebrate", "conditions": "Halotydeus destructor, 24 h, read-out: % RLEM mortality, Susceptible", "method": "(§1) The insecticide-susceptible H. destructor population tested in this bioassay was collected from burr medic (Medicago polymorpha) and barley grass (Hordeum leporinum) in Moulamein, NSW (−35.102, 144.026), a site with no known history of insecticide application. […] Mites were collected via suction using a Stihl SH55 blower vacuum, placed in plastic containers with paper towel and vegetation, and transported back to the laboratory, where they were stored at 4° C. until testing.\n(§2) Serial dilutions were prepared for each insecticide (Table 9), with the addition of a non-ionic surfactant (Tween 20) at 0.01% to aid the spread of the insecticide and ensure even coating. […] Nine concentrations of bifenthrin were tested, ranging from 1×10^−5 to 10 times the field rate of 40 mL diluted in 100 L of water (100 mg a.i./L). Seven concentrations of omethoate were tested, ranging from 1×10^−5 to 10 times the field rate of 100 mL in 100 L of water (290 mg a.i./L).\n(§3) Six vials were coated per concentration and were left to dry overnight. Control vials were treated in the same way, except water (with the addition of 0.01% Tween) was used. The next day, eight individual H. destructor were then placed into each vial along with 2-3 leaves of common vetch (Vicia sativa), which provided food and humidity. Vials were then sealed with a screw lid and placed in a controlled temperature cabinet at 18° C. After 24-hours exposure, mites were scored as alive (moving freely), incapacitated (inhibited movement), or dead (no movement over a 5 second period).\n(§4) Dose-response curves were generated by plotting percentage mortality against log concentration. A series of logistic models were used to quantify the sensitivity of H. destructor to each chemical and to test whether any differences in sensitivity were present between the two populations. Logistic regression is well suited for the analysis of binary response data (e.g., dead/alive). Each model included chemical concentration and H. destructor population as fixed-effect predictors, which allowed testing for whether populations had average differences in mortality (i.e., model intercept) via F tests. It was then determined if populations had differences in mortality that were dependent on chemical concentration (i.e., differences in regression slopes) by comparing the inclusion of a population×concentration predictor (i.e., allowing slopes to vary between populations). […] The resulting LC50 values were used to quantify the level of insecticide resistance (resistance ratios) relative to the known insecticide-susceptible population. All analyses were conducted using R version 4.3.1 (R Development Core Team 2023)."}, "[2]": {"tested_on": "insecticide-resistant population of redlegged earth mite (H. destructor; RLEM)", "experiment": "whole plant or invertebrate", "conditions": "Halotydeus destructor, 24 h, read-out: % RLEM mortality, Resistant", "method": "as §1, §2, §3, §4"}, "[3]": {"tested_on": "couch mite (Aceria cynodoniensis)", "experiment": "Field trial in hybrid couch turfgrass, control of couch mite (Example 7)", "assay_type": "in vivo", "method": "A field trial was conducted in hybrid couch turfgrass, to evaluate fenpyroximate for control of couch mite (Aceria cynodoniensis). The trial was located at Oxley Golf Club, Oxley Queensland (−27.57077, 152.99762). […] All treatments were applied using a hand boom fitted with XR11004 nozzles and in a spray volume of 430 L/ha.\nThe severity of couch mite damage to the terminal growth point (known as witches' broom) was assessed pre-spraying, then at 42 and 56 days after the second application. The density of couch mite was assessed pre-spraying and at 28 days after the second application. Turf quality was assessed on a 0 to 9 rating scale (0=dead; 9=best quality/color) prior to the first application and 14 days after the second application.\n(§5) All data was statistically analyzed using analysis of variance and Fisher's protected least significant different test (Fishers LSD). The level of significance for all tests was P<0.05."}, "[4]": {"tested_on": "ground pearl (Margarodes spp)", "experiment": "Field trial in kikuyu turf, control of ground pearl, Robina (Example 6)", "assay_type": "in vivo", "method": "A field trial was conducted in kikuyu turf, to evaluate fenpyroximate for control of ground pearl (Margarodes spp). The trial was located at Robina, Queensland (−28.069442, 153.401817), in an area with a known infestation of ground pearl.\nAll treatments were applied using a hand boom fitted with XC08 nozzles, in a spray volume of 443 L/ha.\nThe ground pearl density by species was assessed prior to the first application and again 21 days after the third application by sampling 20 cores per plot and recording the number of eggs and adults. Turf vigor was assessed on a 0 to 10 rating scale (0=dead; 10=best quality/color) prior to the first application and 42 days after the third application.\nas §5"}, "[5]": {"tested_on": "ground pearl (Margarodes spp)", "experiment": "Field trial in kikuyu turf, control of ground pearl, Sydney (Example 2)", "assay_type": "in vivo", "method": "A field trial was conducted in kikuyu turf, to evaluate fenpyroximate for control of ground pearl (Margarodes spp). The trial was located at Sydney University, New South Wales (−33.888, 151.188), in an area with a known infestation of ground pearl.\nAll treatments were applied using a hand boom fitted with XR11004 nozzles, in a spray volume of 430 L/ha.\nThe ground pearl density by species was assessed by sampling 20 cores per plot and recording the number of eggs and adults, and Normalized Difference Vegetation Index (NDVI) was assessed 56 days after the third application using a Greenseeker.\nas §5"}, "[6]": {"conditions": "21 days after third application, product rate mL or g/ha: Meridian 1200, Kohinor 350 SC 1500, Fenpyroximate 50 SC 4000 (200 g ai/ha), each with Stamina B 20000"}, "[7]": {"conditions": "Pre-spray (baseline), 20 cores per plot"}, "[8]": {"conditions": "versus untreated, P<0.05, with PE 6200"}}, "data": [{"smiles": "Cc1nn(C)c(Oc2ccccc2)c1C=NOCc1ccc(C(=O)OC(C)(C)C)cc1", "note": "[Fenpyroximate]", "values": [{"measurement": "mortality at 0.1 µg/mL", "setting": "[1]", "value": 6.9, "unit": "%"}, {"measurement": "mortality at 1 µg/mL", "setting": "[1]", "value": 12.6, "unit": "%"}, {"measurement": "mortality at 10 µg/mL", "setting": "[1]", "value": 11.3, "unit": "%"}, {"measurement": "mortality at 100 µg/mL", "setting": "[1]", "value": 47.3, "unit": "%"}, {"measurement": "mortality at 300 µg/mL", "setting": "[1]", "value": 92.2, "unit": "%"}, {"measurement": "mortality at 1000 µg/mL", "setting": "[1]", "value": 98.5, "unit": "%"}, {"measurement": "mortality at 10000 µg/mL", "setting": "[1]", "value": 100, "unit": "%"}, {"measurement": "mortality at 0.1 µg/mL", "setting": "[2]", "value": 4.6, "unit": "%"}, {"measurement": "mortality at 10 µg/mL", "setting": "[2]", "value": 11.2, "unit": "%"}, {"measurement": "mortality at 100 µg/mL", "setting": "[2]", "value": 45.7, "unit": "%"}, {"measurement": "mortality at 300 µg/mL", "setting": "[2]", "value": 86.3, "unit": "%"}, {"measurement": "mortality at 1000 µg/mL", "setting": "[2]", "value": 100, "unit": "%"}, {"measurement": "mortality at 10000 µg/mL", "setting": "[2]", "value": 100, "unit": "%"}, {"measurement": "Couch mites/3 terminals, 28 DAA2", "setting": "[3]; 28 DAA2, product rate mL/ha: Abazine Miticide 1350, Fenpyroximate 50 SC 2000", "value": 45.8, "unit": "mites/3 terminals"}, {"measurement": "Turf quality (0-9), 14 DAA2", "setting": "[3]; 14 days after second application, 0=dead, 9=best quality/color, product rate mL/ha: Abazine Miticide 1350, Fenpyroximate 50 SC 2000", "value": 5.1}, {"measurement": "% Severity mite damage, 42 DAA2", "setting": "[3]; 42 days after second application, product rate mL/ha: Abazine Miticide 1350, Fenpyroximate 50 SC 2000 (100 g ai/ha)", "value": 7.0, "unit": "a %"}, {"measurement": "% Severity mite damage, 56 DAA2", "setting": "[3]; 56 days after second application, product rate mL/ha: Abazine Miticide 1350, Fenpyroximate 50 SC 2000 (100 g ai/ha)", "value": 6.5, "unit": "a %"}, {"measurement": "Couch mites/3 terminals, Pre-spray", "setting": "[3]; Pre-spray (baseline)", "value": 130.5, "unit": "mites/3 terminals"}, {"measurement": "Turf quality (0-9), Pre-spray", "setting": "[3]; Pre-spray (baseline), 0=dead, 9=best quality/color", "value": 4.5}, {"measurement": "% Severity mite damage, Pre-spray", "setting": "[3]; Pre-spray (baseline), witches' broom", "value": 40.0, "unit": "%"}, {"measurement": "density of couch mite (in words)", "setting": "[3]; versus untreated, P<0.05", "value": "significantly both reduced"}, {"measurement": "turf quality (in words)", "setting": "[3]; versus untreated, P<0.05", "value": "improved"}, {"measurement": "Ground pearls/plot, Adults, 21 DAA3", "setting": "[4]; [6]", "value": 1.0, "unit": "ab ground pearls/plot"}, {"measurement": "Ground pearls/plot, Eggs, 21 DAA3", "setting": "[4]; [6]", "value": 1.0, "unit": "abc ground pearls/plot"}, {"measurement": "Turf vigor (0-10), Pre-spray", "setting": "[4]; Pre-spray (baseline), 0=dead, 10=best quality/color", "value": 5.1}, {"measurement": "Ground pearls/plot, Adults, Pre-spray", "setting": "[4]; [7]", "value": 6.7, "unit": "ground pearls/plot"}, {"measurement": "Ground pearls/plot, Eggs, Pre-spray", "setting": "[4]; [7]", "value": 4.0, "unit": "ground pearls/plot"}, {"measurement": "density of ground pearl eggs and adults (in words)", "setting": "[4]; versus untreated, P<0.05", "value": "significantly reduced"}, {"measurement": "turf vigor (in words)", "setting": "[4]; versus untreated, P<0.05", "value": "significantly improved"}, {"measurement": "NDVI, Pre-spray", "setting": "[5]; Pre-spray (baseline), kikuyu turf, Greenseeker", "value": 8.0}, {"measurement": "Ground pearls/plot, Adults, Pre-spray", "setting": "[5]; sc", "value": 4.0, "unit": "a ground pearls/plot"}, {"measurement": "Ground pearls/plot, Eggs, Pre-spray", "setting": "[5]; sc", "value": 10.3, "unit": "a ground pearls/plot"}, {"measurement": "Ground pearls/plot, Adults, 56 DAA3", "setting": "[5]; sc, 200 g/ha, 1344 h", "value": 12.8, "unit": "a ground pearls/plot"}, {"measurement": "Ground pearls/plot, Eggs, 56 DAA3", "setting": "[5]; sc, 200 g/ha, 1344 h", "value": 5.3, "unit": "a ground pearls/plot"}, {"measurement": "NDVI, 56 DAA3", "setting": "[5]; sc, 1344 h", "value": 7.6}, {"measurement": "turf color and quality / NDVI (in words)", "setting": "[5]; versus untreated, P<0.05", "value": "significantly improved"}, {"measurement": "density of ground pearl adults (in words)", "setting": "[5]; [8]", "value": "significantly reduced"}, {"measurement": "density of ground pearl eggs (in words)", "setting": "[5]; [8]", "value": "significantly reduced"}]}]}
